Test results reported in paper doi:10.1101/2022.12.02.518844v2 (bioRxiv, 2022).

Test system: 1057 cells (GRPR^pos)
Test: Cell growth of GRPR^pos mouse melanoma cells
Format: cell-based
Settings: 1 µM GRPR inhibitor + 10 nM GRP, low-serum medium, 48 h

## COc1ccc(C2(CNC(=O)[C@](C)(Cc3c[nH]c4ccccc34)NC(=O)Nc3ccc([N+](=O)[O-])cc3)CCCCC2)nc1 [PD-176252]
  GRP-induced growth assessed by MTT: same blocking effect
